Key:
[1] = tested on: HCT116-WT cells; assay: Inhibitory activity against cell proliferation (CellTiter Glo, 6 days), HCT116-WT; assay type: cell-based; conditions: 144 h, HCT116-WT cells, 6 days, CellTiter Glo; read-out: HCT116-WT IC50
Summary of the method: (§1)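 Viability IC50s come from CellTiter Glo luminescence after 6 days' exposure to compound (8 concentrations, 4-fold steps, top 10000 nM), relative to DMSO wells. Cells were MTAP-KO or WT HCT116, seeded at 250 per well in McCoy's 5A with 10% FBS and incubated overnight before dosing.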

[2] = target: PRMT5-MTA (Homo sapiens, UniProt O14744); assay: Enzymatic inhibitory activity against PRMT5-MTA (AlphaScreen); assay type: biochemical; conditions: read-out: IC50
Summary of the method: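 PRMT5/[…] (1 nM) was preincubated for 30 min at room temperature with 1 µM […] and 2.5 µM SAM, then exposed to compound (10-point, 3-fold from 1000 nM) for 15 min at 23 °C. Histone H4 substrate (5 nM) was added and reacted for 45 min at 23 °C. Symmetric dimethyl-R3 H4 was detected by AlphaScreen and IC50 calculated.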

[3] = tested on: HCT116 MTAP KO cells; assay: Inhibitory activity against cell proliferation (CellTiter Glo, 6 days), HCT116 MTAP KO; assay type: cell-based; conditions: for IC50: Homo sapiens, HCT-116, 144 h, HCT116 MTAP KO cells, 6 days, CellTiter Glo, read-out: HCT116 MTAP KO IC50; for Selectivity HCT 116-WT/ HCT116 MTAP KO: ratio of IC50 HCT116-WT / HCT116 MTAP KO
Summary of the method: as §1

PRMT5-MTA, sequence (O14744 whole entry): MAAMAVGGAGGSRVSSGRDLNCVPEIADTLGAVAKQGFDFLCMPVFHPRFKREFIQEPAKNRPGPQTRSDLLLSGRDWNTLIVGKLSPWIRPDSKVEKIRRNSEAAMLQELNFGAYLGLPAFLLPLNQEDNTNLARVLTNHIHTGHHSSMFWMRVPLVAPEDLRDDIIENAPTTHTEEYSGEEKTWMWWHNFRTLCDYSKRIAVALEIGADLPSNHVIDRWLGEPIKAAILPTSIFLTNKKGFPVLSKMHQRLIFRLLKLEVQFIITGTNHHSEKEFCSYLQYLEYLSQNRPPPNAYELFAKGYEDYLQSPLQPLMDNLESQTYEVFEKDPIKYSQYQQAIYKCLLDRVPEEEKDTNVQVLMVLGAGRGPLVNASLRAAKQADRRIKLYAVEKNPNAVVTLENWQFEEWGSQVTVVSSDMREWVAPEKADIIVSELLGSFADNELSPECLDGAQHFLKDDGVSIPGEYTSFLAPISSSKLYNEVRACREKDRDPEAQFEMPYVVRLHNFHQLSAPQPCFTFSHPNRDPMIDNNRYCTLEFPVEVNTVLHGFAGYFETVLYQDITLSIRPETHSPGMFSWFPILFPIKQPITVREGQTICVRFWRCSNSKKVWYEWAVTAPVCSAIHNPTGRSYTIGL
PRMT5-MTA, sequence (Q9BQA1 whole entry partner): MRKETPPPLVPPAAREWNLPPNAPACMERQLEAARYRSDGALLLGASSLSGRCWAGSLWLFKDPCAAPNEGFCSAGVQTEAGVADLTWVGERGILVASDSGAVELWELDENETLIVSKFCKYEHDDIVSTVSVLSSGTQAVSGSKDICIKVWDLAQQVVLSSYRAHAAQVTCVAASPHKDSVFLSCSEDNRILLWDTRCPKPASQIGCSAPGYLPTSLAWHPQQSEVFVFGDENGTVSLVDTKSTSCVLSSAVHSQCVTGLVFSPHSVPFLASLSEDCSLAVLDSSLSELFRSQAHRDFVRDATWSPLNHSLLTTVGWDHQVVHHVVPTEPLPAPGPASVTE

SMILES | IC50 [1] [nM] | IC50 [2] [nM] | IC50 [3] [nM] | Selectivity HCT 116-WT/ HCT116 MTAP KO [3]
Cc1cc2cc(C(=O)N(Cc3ccc(-c4cnn(C)c4)cn3)N(c3ncccn3)C3CC3)ccc2nc1N [Example 152, 2-amino-N'-cyclopropyl-3-methyl-N-((5-(1-methyl-1H-pyrazol-4-yl)pyridin-2-yl)methyl)-N'-(pyrimidin-2-yl)quinoline-6-c arbohydrazide] | 998 | 4.4 | 35 | 28.51
Cc1cc2cc(C(=O)N(Cc3ccc(C4CC4)cn3)N(C)c3ncccn3)ccc2nc1N [Example 153, 2-amino-N-((5-cyclopropylpyridin-2-yl)methyl)-N',3-dimethyl-N'-(pyrimidin-2-yl)quinoline-6-carbohydrazide] | 1060 | 1.6 | 20 | 52.80
Cc1cc2cc(C(=O)N(Cc3ccc(-c4ccc(C(F)(F)F)nc4)cn3)N(C)c3ncccn3)ccc2nc1N [Example 154, 2-amino-N',3-dimethyl-N'-(pyrimidin-2-y 1)-N-((6'-(trifluoromethyl)-[3,3'-bipyridine]-6-yl)methyl)quinoline-6-carbohydrazide] | 833 | 1.6 | 60 | 13.88
Cc1cc2cc(C(=O)N(Cc3ccc(-c4ccc(=O)n(C)c4)cn3)N(C)c3ncccn3)ccc2nc1N [Example 155, 2-amino-N',3-dimethyl-N-((1'-methyl-6'-oxo-1',6'-dihydro-[3,3'-bipyridine]-6-yl)methyl)-N'-(pyrimidin-2-yl)quinoline-6-car bohydrazide] | 1260 | 2.3 | 42 | 30.00
Cc1cc2cc(C(=O)N(Cc3ccc(-c4ccoc4)cn3)N(C)c3ncccn3)ccc2nc1N [Example 156, 2-amino-N-((5-(furan-3-yl)pyridin-2-yl)methyl)-N',3-dimethyl-N'-(pyrimidin-2-yl)quinoline-6-carbohydrazide] | 1540 | 1.8 | 76 | 20.26
Cc1cc2cc(C(=O)N(Cc3ccc(-c4cnsc4)cn3)N(C)c3ncccn3)ccc2nc1N [Example 157, 2-amino-N-((5-(isothiazol-4-yl)pyridin-2-yl)methyl)-N',3-dimethyl-N'-(pyrimidin-2-yl)quinoline-6-carbohydrazide] | 361 | 6.9 | 14 | 25.79
Cc1nc(C)c(-c2ccc(CN(C(=O)c3ccc4nc(N)c(C)cc4c3)N(c3ncccn3)C3CC3)nc2)s1 [Example 158, 2-amino-N'-cyclopropyl-N-((5-(2,4-dimethylthiazol-5-yl)pyridin-2-yl)methyl)-3-m ethyl-N'-(pyrimidin-2-yl)quinoline-6-carb ohydrazide] | 225 | 4.5 | 12 | 18.75
Cc1cc2cc(C(=O)N(Cc3ccc(C4=CCOCC4)cn3)N(C)c3ncccn3)ccc2nc1N [Example 159, 2-amino-N-((5-(3,6-dihydro-2H-pyran-4-yl)pyridin-2-yl)methyl)-N',3-dimethyl-N' -(pyrimidin-2-yl)quinoline-6-carbohydrazide] | 2070 | 3.3 | 72 | 28.76
Cc1ccc(-c2ccc(CN(C(=O)c3ccc4nc(N)c(C)cc4c3)N(C)c3ncccn3)nc2)cn1 [Example 160, 2-amino-N',3-dimethyl-N-((6'-methyl-[3, 3'-bipyridine]-6-yl)methyl)-N'-(pyrimidin-2-yl)quinoline-6-carbohydrazide] | 580 | 2 | 27 | 21.48
COc1ncc(F)cc1-c1ccc(CN(C(=O)c2ccc3nc(N)c(C)cc3c2)N(C)c2ncccn2)nc1 [Example 161, 2-amino-N-((5'-fluoro-2'-methoxy-[3,3'-bipyridine]-6-yl)methyl)-N',3-dimethyl-N'-(pyrimidin-2-yl)quinoline-6-carbohydrazide] | 1780 | 1.7 | 87 | 20.48
Cc1cc2cc(C(=O)N(Cc3ccc(-c4cnn(C)c4)cn3)N(C)c3nccc4nccnc34)ccc2nc1N [Example 162, 2-amino-N',3-dimethyl-N-((5-(1-methyl-1H-pyrazol-4-yl)pyridin-2-yl)methyl)-N'-(pyrido[3,4-b]pyrazin-5-yl)quinoline-6-carbohydrazide] | 850 | 5.4 | 36 | 23.61
Cc1cc2cc(C(=O)N(Cc3ccc(-c4cccnc4)cn3)N(C)c3ncccc3F)ccc2nc1N [Example 163, N-([3,3'-bipyridine]-6-ylmethyl)-2-amino -N'-(3-fluoropyridin-2-yl)-N',3-dimethylq uinoline-6-carbohydrazide] | 465 | 1.4 | 15 | 31.00
Cc1cc2cc(C(=O)N(Cc3ccc(C4CC4)cn3)N(C)c3ncccc3F)ccc2nc1N [Example 164, 2-amino-N-((5-cyclopropylpyridin-2-yl)methyl)-N'-(3-fluoropyridin-2-yl)-N',3-di methylquinoline-6-carbohydrazide] | 443 | 0.9 | 20 | 22.15
[2H]C([2H])([2H])c1cc2cc(C(=O)N(Cc3ccc(-c4cnn(C)c4)cn3)N(C)c3ncccn3)ccc2nc1N [Example 166, 2-amino-N'-methyl-3-(methyl-D3)-N-((5-(1-methyl-1H-pyrazol-4-yl)pyridin-2-yl)methyl)-N'-(pyrimidin-2-yl)quinoline-6-carbohydrazide] | 1250 | 4.8 | 68 | 18.32
Cc1cc2cc(C(=O)N(Cc3ccc(-c4ccn(C)n4)cn3)N(C)c3ncccn3)ccc2nc1N [Example 168, 2-amino-N',3-dimethyl-N-((5-(1-methyl-1H-pyrazol-3-yl)pyridin-2-yl)methyl)-N'-(pyrimidin-2-yl)quinoline-6-carbohydrazide] | 2570 | 2.6 | 194 | 13.26
Cc1cc2cc(C(=O)N(Cc3ccc(-c4cnn(C5COC5)c4)cn3)N(C)c3ncccn3)ccc2nc1N [Example 169, 2-amino-N',3-dimethyl-N-((5-(1-(oxetan-3-yl)-1H-pyrazol-4-yl)pyridin-2-yl)methyl)-N'-(pyrimidin-2-yl)quinoline-6-carbohydrazide] | 973 | 2.5 | 39 | 24.95
Cc1ncsc1-c1ccc(CN(C(=O)c2ccc3nc(N)c(Br)cc3c2)N(c2ncccn2)C2CC2)nc1 [Example 171, 2-amino-3-bromo-N'-cyclopropyl-N-((5-(4-methylthiazol-5-yl)pyridin-2-yl)methyl)-N'-(pyrimidin-2-yl)quinoline-6-carbohydrazide] | 622 | 5.2 | 43 | 14.47
Cc1cc2cc(C(=O)N(Cc3ccc(-c4cccnc4)cn3)N(C)c3ncccn3)ccc2nc1N [Example 172, N-([3,3'-bipyridine]-6-ylmethyl)-2-amino -N',3-dimethyl-N'-(pyrimidin-2-yl)quinoline-6-carbohydrazide] | 1750 | 2.1 | 24 | 73.08
Cc1cc2cc(C(=O)N(Cc3ccc(-c4ccncc4)cn3)N(C)c3ncccn3)ccc2nc1N [Example 173, N-([3,4'-bipyridine]-6-ylmethyl)-2-amino -N',3-dimethyl-N'-(pyrimidin-2-yl)quinoline-6-carbohydrazide] | 633 | 1.9 | 21 | 30.14
COc1ccc(-c2ccc(CN(C(=O)c3ccc4nc(N)c(C)cc4c3)N(C)c3ncccn3)nc2)cn1 [Example 174, 2-amino-N-((6'-methoxy-[3,3'-bipyridine] -6-yl)methyl)-N',3-dimethyl-N'-(pyrimidin-2-yl)quinoline-6-carbohydrazide] | 1080 | 2.3 | 41 | 26.22
Cc1cc2cc(C(=O)N(Cc3ccc(-c4cncc(C(F)(F)F)c4)cn3)N(C)c3ncccn3)ccc2nc1N [Example 175, 2-amino-N',3-dimethyl-N'-(pyrimidin-2-yl)-N-((5'-(trifluoromethyl)-[3,3'-bipyridine]-6-yl)methyl)quinoline-6-carbohydrazide] | 2200 | 3.3 | 116 | 18.95
Cc1cc2cc(C(=O)N(Cc3ccc(-c4ccc(N5CCOCC5)nc4)cn3)N(C)c3ncccn3)ccc2nc1N [Example 176, 2-amino-N',3-dimethyl-N-((6'-morpholinyl-[3,3'-bipyridine]-6-yl)methyl)-N'-(pyrimidin-2-yl)quinoline-6-carbohydrazide] | 997 | 2 | 57 | 17.49

Source: EP4745134A1 (Jiangsu Yahong Meditech Co., Ltd., priority 2023, dated 2025)
